Test results reported in US20170035793A1, “Use of P2X Purinergic Receptor Agonists to Enhance Insulin Secretion In Pancreatic Beta Cells” (priority 2010, published 2017).
pEC50: −log10 of the molar value. Entries after “also recorded” stand apart in the source; their conditions may differ.

Key:
monkey islets = assay: Insulin secretion from perifused monkey islets; format: cell-based, cynomolgus monkeys (Macacca fascicularis); conditions: increasing ATP concentrations
Excerpt: (§1) Islet Isolation. Islets were isolated as previously described (57). Monkey islets were isolated from cynomolgus monkeys (Macacca fascicularis) >4 years of age at the time of pancreas procurement, as previously described (58). Pig pancreata were procured from the local slaughterhouse. Mice (C57BL/6) and rat (Lewis rat; Harlan) islets were isolated using a rodent-islet isolation technique (59). All animal protocols were approved by the University of Miami Care and Use Committee. Human pancreatic islets were obtained from the Human Islet Cell Processing Facility at the Diabetes Research Institute, University of Miami Miller School of Medicine or from the Islet Cell Resource basic science islet distribution program, Islet Cell Resource Centers (ICRs) Consortium, Division of Clinical Research, National Center for Research Resources, National Institutes of Health. Human islets were dissociated into single cells using enzyme-free cell dissociation buffer (Invitrogen). […]
(§2) Insulin and Glucagon Secretion. Insulin and glucagon secretion were measured as previously described (8, 36). […] Hormone release in the perifusate was determined with the human or mouse Endocrine LINCOplex Kit following manufacturer's instructions (Lincoresearch). […]

mouse islets = assay: Glucagon secretion from perifused mouse islets; format: cell-based, Mice (C57BL/6)
Excerpt: as §1, §2

pig islets = assay: Insulin secretion from perifused pig islets; format: cell-based; conditions: 1-1,000 μM
Excerpt: as §1, §2

human islets [1] = assay: Glucagon secretion from perifused human islets; format: cell-based
Excerpt: as §1, §2

human islets [2] = assay: Glucose-induced insulin secretion (glucose raised from 3 mM to 11 mM) in perifused human islets; format: cell-based; conditions: glucose 3 mM to 11 mM, MRS2159 10 μM, Brilliant Blue G 1 μM, KN-62 1 μM, reactive blue 2 50 μM, MRS2179 10 μM, CGS15943 10 μM, adenosine 100 μM
Excerpt: (§3) Islet Isolation. Islets were isolated as previously described (57). Monkey islets were isolated from cynomolgus monkeys (Macacca fascicularis) >4 years of age at the time of pancreas procurement, as previously described (58). Pig pancreata were procured from the local slaughterhouse. Mice (C57BL/6) and rat (Lewis rat; Harlan) islets were isolated using a rodent-islet isolation technique (59). All animal protocols were approved by the University of Miami Care and Use Committee. Human pancreatic islets were obtained from the Human Islet Cell Processing Facility at the Diabetes Research Institute, University of Miami Miller School of Medicine or from the Islet Cell Resource basic science islet distribution program, Islet Cell Resource Centers (ICRs) Consortium, Division of Clinical Research, National Center for Research Resources, National Institutes of Health. Human islets were dissociated into single cells using enzyme-free cell dissociation buffer (Invitrogen). Islets and islets cells from Q:1 all species were cultured identically (37° C. and 5% CO2) inCMRL Q:2 medium-1066 (Invitrogen), niacinamide (10 mM; Sigma), ITS (BD Biosciences), Zn2SO4 (15 μM, Sigma), GlutaMAX (2 mM; Invitrogen), Hepes (25 mM; Sigma), FBS (10%; Invitrogen), and penicillinstreptomycin (100 IU/mL-100 μg/mL; Invitrogen).
(§4) Insulin and Glucagon Secretion. Insulin and glucagon secretion were measured as previously described (8, 36). A high-capacity automated perifusion system was developed to dynamically measure hormone secretion from pancreatic islets. A low pulsatility peristaltic pump pushed Hepes-buffered solution (125 mM NaCl, 5.9 mM KCl, 2.56 mM CaCl2, 1 mM MgCl2, 25 mM Hepes, and 0.1% BSA, pH 7.4 at a perifusion rate of 100 μL/min) through a column containing 100 pancreatic islets immobilized in Bio-Gel P-4 Gel (BioRad). Except when otherwise stated, glucose concentration was adjusted to 3 mM for all experiments. Stimuli were applied with the perifusion buffer. The perifusate was collected in an automatic fraction collector designed for a 96-well plate format. The columns containing the islets and the perifusion solutions were kept at 37° C., and the perifusate in the collecting plate was kept at <4° C. Perifusates were collected every 1 min. Hormone release in the perifusate was determined with the human or mouse Endocrine LINCOplex Kit following manufacturer's instructions (Lincoresearch). Human islet preparations varied considerably in their quality. Thus, the magnitudes of the responses to different stimuli were compared with the same recording or using recordings from the same preparation.

human islets [3] = assay: Dynamic insulin secretion from perifused human islets kept at constant glucose; format: cell-based
Excerpt: as §3, §4

pEC50 (human islets [3]; 3 mM and 11 mM glucose, read-out: high affinity component of the concentration response relationship for insulin release): ~6.30
Structure (SMILES): Nc1ncnc2c1ncn2[C@@H]1O[C@H](COP(=O)(O)OP(=O)(O)OP(=O)(O)O)[C@@H](O)[C@H]1O [ATP]
insulin response of monkey islets (monkey islets): responded to increasing concentrations of ATP like human islets
glucagon response of mouse islets (mouse islets): difficult to discern; also recorded: stimulated small increases in glucagon secretion
insulin response of pig islets (pig islets): No responses to ATP were observed; also recorded: neither ATP nor any of the other purinergic agonists tested stimulated insulin release
glucagon response of human islets (human islets [1]): stimulated small increases in glucagon secretion
effect on glucose-induced insulin secretion (human islets [2]): did not add to the insulin response; also recorded: not effective during abrupt increases in glucose concentration
insulin secretory response to the agonist at low glucose (human islets [3]; 3 mM glucose, ATP 100 μM (or concentration series), ATPγS 50 μM, BzATP 50 μM, α,β-methylene ATP 50 μM, ADP 100 μM, UTP 100 μM, adenosine 100 μM): elicited insulin secretory responses; also recorded: stimulated increases in insulin release concentration dependently; also recorded: promoted strong responses; also recorded: elicited large insulin and [Ca^2+]i, responses
response to high glucose (11 mM) compared with the increase elicited by ATP (1 mM) (human islets [3]; ATP 1 mM response as reference): 101%±30
insulin release on increasing extracellular ATP >1 mM (human islets [3]; ATP >1 mM): did not further raise insulin release
insulin responses to the agonist in islets kept at high glucose (human islets [3]; constant 11 mM glucose, ATP 100 μM, ATPγS 50 μM, BzATP 50 μM, UTP 100 μM, ADP 100 μM): stimulated increases in insulin release concentration dependently; also recorded: promoted strong responses
